Experimental data: patent US20240290976A1, “CYCLOTETRABENZIL COMPOUNDS FOR ELECTROCHEMICAL LITHIUM-ION STORAGE” (UNIVERSITY OF HOUSTON SYSTEM, priority 2023, published 2024)
≈ marks a conversion by molar mass, not a printed value. Where “and” joins values, the source holds several entries; their conditions need not be identical. Equal entries are not always repeated.

Tests used:
[1] = Solubility tests in 0.5M LiTFSI DME/DOL electrolyte; type: physicochemical; details: 0.5M LiTFSI in DME/DOL (v:v=1:1)
Description: In an argon-filled glovebox, certain mass of compounds 1-4 solids were added to vials. Then, 0.5M solution of LiTFSI in DME/DOL (v:v=1:1) was slowly added dropwise and the mixture was manually stirred until all material visibly dissolved. The amount of LiTFSI solution used was recorded to determine the solubility of each compound in the electrolyte. The order of solubility from highest to lowest is compound 4 (163.7 mmol L^−1), compound 1 (12.48 mmol L^−1), compound 2 (3.57 mmol L^−1), and compound 3 (2.76 mmol L^−1).

[2] = UV-vis of soaked solutions from cathode/separator at 50% state-of-discharge; type: physicochemical; details: ~360 nm; 50% state-of-charge; DME/DOL
Description: The CR2032 coin cell with cathode 2 or cathode 4 was discharged at the rate of 100 mA g^−1 until 50% state-of-discharge and was disassembled in an argon-filled glovebox. Then, the cathode and separator were immersed into 1.0 mL DME/DOL(1/1 v %) solvent for 6h. For the UV-vis absorption measurements, 30 μL of solution was extracted from the soaked vials and diluted with 3000 μL of DME/DOL solvent.

SMILES	solubility in the electrolyte [1]	melting point	absorbance intensity of soaked solution, higher than that of compound 2 [2] [%]
O=C1C(=O)c2ccc(cc2)C(=O)C(=O)c2ccc(cc2)C(=O)C(=O)c2ccc(cc2)C(=O)C(=O)c2ccc1cc2 [compound 1]	12.48 mM (≈ 6600 µg/mL)	–	–
O=C1C(=O)c2ccc(cc2)-c2ccc(cc2)C(=O)C(=O)c2ccc(cc2)-c2ccc(cc2)C(=O)C(=O)c2ccc(cc2)-c2ccc(cc2)C(=O)C(=O)c2ccc(cc2)-c2ccc1cc2 [compound 3]	2.76 mM (≈ 2300 µg/mL)	332 to 334 °C	–
O=C1C(=O)c2ccc3cc(ccc3c2)C(=O)C(=O)c2ccc3cc(ccc3c2)C(=O)C(=O)c2ccc3cc(ccc3c2)C(=O)C(=O)c2ccc3cc1ccc3c2 [compound 2]	3.6 ± 0.1 mM and 3.57 mM	> 360 °C (dec.)	–
O=C(C(=O)c1ccc2ccccc2c1)c1ccc2ccccc2c1 [compound 4, 1,2-bis(2-naphthyl)ethan-1,2-dione, reference compound]	164 ± 1 mM and 163.7 mM	–	300
